{"source": "patent US20260243775A1", "about": "“CELL LABELING AND ANNOTATION IN MICRO-ORGANOSPHERES” (Xilis, Inc., priority 2023, published 2026)", "system": "CRC cells co-encapsulated with fibroblasts, endothelial cells, and PBMCs in MOS", "experiment": "Live/dead staining (Calcein AM / ethidium homodimer) of EpCAM-stained MOS after drug treatment", "type": "cell-based", "conditions": "higher dose (33.3 μM) versus 1.23 μM, treated for three days, FIG. 3A", "description": "FIG. 3A includes representative images showing live MOS staining of CRC cells co-encapsulated with fibroblasts, endothelial cells, and PBMCs, stained with EpCAM and treated with vehicle or oxaliplatin for three days, followed by staining with Calcein AM (CAM) and ethidium homodimer (EtH). FIG. 3B is a graph plotting differential drug responses observed for the CRC only condition and for CRCs co-encapsulated with the non-cancer cells, measured by CTG assay.\nAdditional images of stained live MOS are shown in FIG. 3A, which includes representative images of live MOS containing CRC cells co-encapsulated with fibroblasts, endothelial cells, and PBMCs, where the MOS were stained with EpCAM and treated with vehicle or oxaliplatin (1.23 μM or 33.3 μM) for three days, followed by staining with Calcein AM (CAM) and ethidium homodimer (EtH). […] When MOS encapsulating only CRC cells or MOS co-encapsulating CRC cells, fibroblasts, endothelial cells, and PBMCs were treated with oxaliplatin, differential responses to the treatment were observed between the CRC-only MOS and the co-encapsulated MOS, as determined by CTG assay (FIG. 3B). However, the drug responses of the CRC-only MOS versus the CRC/non-cancer cell co-encapsulated MOS were much more similar based on live cell dye (CAM): dead cell dye (EtH) ratios from EpCAM positive (FIG. 3C)."}
{"smiles": "O=C1[O][Pt]2([NH][C@@H]3CCCC[C@H]3[NH]2)[O]C1=O", "note": "[oxaliplatin]", "values": [{"measurement": "EtH (dead) and Calcein AM (live) staining, degree of killing", "value": "a greater degree of killing"}]}
